Literature values in patent US12214218B2, “Perfusion modulated tumor dose sculpting with single dose radiotherapy” (MEMORIAL SLOAN KETTERING CANCER CENTER, priority 2019, dated 2025).
Like-named read-outs stand apart in the source and are kept apart here.

## CNC(=O)c1ccccc1Sc1ccc2c(/C=C/c3ccccn3)n[nH]c2c1 [axitinib]
In vivo
  average half-life: 2.5 to 6 h

## COc1cc2c(Oc3ccc4[nH]c(C)cc4c3F)ncnc2cc1OCCCN1CCCC1 [cediranib]
Plasma half-life for cediranib
  average half-life: 22 to 27 h

## Cc1cc(C)c(/C=C2\C(=O)Nc3ccccc32)[nH]1 [Semaxanib/SU5416, Semaxanib]
In vivo
  average half-life: 0.5 to 1 h

## anginex
In vivo
  half-life: 0.833 h

B1: rhASM: Recombinant ASM manufactured for clinical use; orphan drug status for Type B NPD (protein, UniProt P17405 47-631, looked up)
Sphingomyelin …: LALSDSRVLWAPAEAHPLSPQGHPARLHRIVPRLRDVFGWGNLTCPICKGLFTAINLGLKKEPNVARVGSVAIKLCNLLKIAPPAVCQSIVHLFEDDMVEVWRRSVLSPSEACGLLLGSTCGHWDIFSSWNISLPTVPKPPPKPPSPPAPGAPVSRILFLTDLHWDHDYLEGTDPDCADPLCCRRGSGLPPASRPGAGYWGEYSKCDLPLRTLESLLSGLGPAGPFDMVYWTGDIPAHDVWHQTRQDQLRALTTVTALVRKFLGPVPVYPAVGNHESTPVNSFPPPFIEGNHSSRWLYEAMAKAWEPWLPAEALRTLRIGGFYALSPYPGLRLISLNMNFCSRENFWLLINSTDPAGQLQWLVGELQAAEDRGDKVHIIGHIPPGHCLKSWSWNYYRIVARYENTLAAQFFGHTHVDEFEVFYDEETLSRPLAVAFLAPSATTYIGLNPGYRVYQIDGNYSGSSHVVLDHETYILNLTQANIPGAIPHWQLLYRARETYGLPNTLPTAWHNLVYRMRGDMQLFQTFWFLYHKGHPPSEPCGTPCRLATLCAQLSARADSPALCRHLMPDGSLPEAQSLWPRPLFC
Wild type mice
  toxicity at high doses: non-toxic
